Laboratory results taken from patent US12049518B2, “Pharmacokinetics and cholecystokinin-2 receptor (CCK2R) targeting for diagnosis and therapy” (Medizinische Universitat Innsbruck, priority 2017, dated 2024).
Where a SMILES comes first, the peptide text is derived from it. [ ]: non-standard residue; d: D form. The star is where a group is joined. DOTA = O=C(O)CN1CCN(CC(=O)O)CCN(CC(=O)*)CCN(CC(=O)O)CC1; 1Nal = N[C@@H](Cc1cccc2ccccc12)C(=O)O; NMeNle = CCCC[C@H](NC)C(=O)O

Columns and labels:
[1] = stability in vivo (radio-HPLC of blood sample); details: BALB/c mice, i.v.
Procedure: To further characterise the stability of the radiolabelled peptidomimetics in vivo, metabolic studies were carried out in 5-6-week-old female BALB/c mice (Charles River, Sulzfeld, Germany) injected intravenously with the ^111In- and […] peptidomimetics. All animal experiments were conducted in compliance with the Austrian animal protection laws and with the approval of the Austrian Ministry of Science. To allow monitoring of the metabolites by radio-HPLC, mice were injected with a higher amount of radioactivity (5-15 MBq ^111In and 20-40 MBq ^177Lu, corresponding to 1-2 nmol total peptide) through a lateral tail vein and euthanized by cervical dislocation 10 or 30 min post injection (p.i.). A sample of blood was collected and the degradation was assessed by radio-HPLC.

[2] = system: serum proteins; assay: protein binding to serum proteins (Sephadex G-50 size-exclusion chromatography); format: in vitro ADME; details: 37° C.; for fraction unbound at 24 h, 500 pmol/mL / fraction unbound at 4 h, 500 pmol/mL: fresh human serum; for fraction unbound at 24 h, 500 pmol/mL: read-out: Percentage of radioligand bound to serum proteins after 24 h incubation (converted); for fraction unbound at 4 h, 500 pmol/mL: read-out: Percentage of radioligand bound to serum proteins after 4 h incubation (converted); for Percentage of radioligand bound to serum proteins after 24 h incubation: human serum
Procedure: Additionally, protein binding to serum proteins was investigated. For this purpose the ^111In-labelled peptidomimetics were incubated in duplicates in fresh human serum at 37° C. (500 pmol/mL) and analyzed after 4 and 24 h by Sephadex G-50 size-exclusion chromatography (GE Healthcare Illustra, Little Chalfont, UK). The percentage of protein binding was determined by measuring the column and the eluate in a 2480 Wizard 2 automatic gamma-counter (Perkin Elmer Life Sciences and Analytical Sciences, Turku, F).

CCCC[C@@H](C(=O)N[C@@H](CC(=O)O)C(=O)N[C@@H](Cc1cccc2ccccc12)C(N)=O)N(C)C(=O)[C@H](Cc1c[nH]c2ccccc12)NC(=O)CNC(=O)[C@H](Cc1ccc(O)cc1)NC(=O)[C@@H]1CCCN1C(=O)[C@@H](CCC(=O)O)NC(=O)CN1CCN(CC(=O)O)CCN(CC(=O)O)CCN(CC(=O)O)CC1 [^177Lu-DOTA-MGS8, metal not drawn] ({DOTA}-[dE]PYGW[NMeNle]D[1Nal]-NH2)
intact radioligand present in the blood at 10 min p.i. [1]: 80.5%
intact radioligand present in the blood at 30 min p.i. [1]: 56.8%

CCCC[C@@H](C(=O)N[C@@H](CC(=O)O)C(=O)N[C@@H](Cc1cccc2ccccc12)C(N)=O)N(C)C(=O)[C@H](Cc1c[nH]c2ccccc12)NC(=O)CNC(=O)[C@H](Cc1ccc(O)cc1)NC(=O)[C@@H]1CCCN1C(=O)[C@@H](CCC(=O)O)NC(=O)CN1CCN(CC(=O)O)CCN(CC(=O)O)CCN(CC(=O)O)CC1 [^111In-DOTA-MGS8, metal not drawn] ({DOTA}-[dE]PYGW[NMeNle]D[1Nal]-NH2)
intact radioligand present in the blood at 10 min p.i. [1]: 80.0±5.2%

CCCC[C@@H](C(=O)N[C@@H](CC(=O)O)C(=O)N[C@@H](Cc1cccc2ccccc12)C(N)=O)N(C)C(=O)[C@H](Cc1c[nH]c2ccccc12)NC(=O)[C@@H]1CCCN1C(=O)[C@H](Cc1ccc(O)cc1)NC(=O)[C@H](C)NC(=O)[C@@H](CCC(=O)O)NC(=O)CN1CCN(CC(=O)O)CCN(CC(=O)O)CCN(CC(=O)O)CC1 [^111In-DOTA-MGS12, metal not drawn] ({DOTA}-[dE]AYPW[NMeNle]D[1Nal]-NH2)
fraction unbound at 24 h, 500 pmol/mL [2]: 0.541

CCCC[C@@H](C(=O)N[C@@H](CC(=O)O)C(=O)N[C@@H](Cc1cccc2ccccc12)C(N)=O)N(C)C(=O)[C@H](Cc1c[nH]c2ccccc12)NC(=O)CNC(=O)[C@H](Cc1ccc(O)cc1)NC(=O)[C@H](C)NC(=O)[C@@H](CCC(=O)O)NC(=O)CN1CCN(CC(=O)O)CCN(CC(=O)O)CCN(CC(=O)O)CC1 [^177Lu-DOTA-MGS5, metal not drawn]
intact radioligand present in the blood at 10 min p.i. [1]: 85.9%
intact radioligand present in the blood at 30 min p.i. [1]: 77.0%

CCCC[C@@H](C(=O)N[C@@H](CC(=O)O)C(=O)N[C@@H](Cc1cccc2ccccc12)C(N)=O)N(C)C(=O)[C@H](Cc1c[nH]c2ccccc12)NC(=O)CNC(=O)[C@H](Cc1ccc(O)cc1)NC(=O)[C@H](C)NC(=O)[C@@H](CCC(=O)O)NC(=O)CN1CCN(CC(=O)O)CCN(CC(=O)O)CCN(CC(=O)O)CC1 [^111In-DOTA-MGS5, metal not drawn]
fraction unbound at 4 h, 500 pmol/mL [2]: 0.59
fraction unbound at 24 h, 500 pmol/mL [2]: 0.557
intact radioligand present in the blood at 10 min p.i. [1]: 82.7±3.3%

CSCC[C@H](NC(=O)[C@H](Cc1c[nH]c2ccccc12)NC(=O)CNC(=O)[C@H](Cc1ccc(O)cc1)NC(=O)[C@H](C)NC(=O)[C@@H](CCC(=O)O)NC(=O)CN1CCN(CC(=O)O)CCN(CC(=O)O)CCN(CC(=O)O)CC1)C(=O)N[C@@H](CC(=O)O)C(=O)N[C@@H](Cc1cccc2ccccc12)C(N)=O [^111In-DOTA-MGS1, ^111In-DOTA-DGlu-Ala-Tyr-Gly-Trp-Met-Asp-1Nal-NH2, metal not drawn, reference compound] ({DOTA}-[dE]AYGWMD[1Nal]-NH2)
fraction unbound at 4 h, 500 pmol/mL [2]: 0.8
fraction unbound at 24 h, 500 pmol/mL [2]: 0.712

CCCC[C@@H](C(=O)N[C@@H](CC(=O)O)C(=O)N[C@@H](Cc1ccc2ccccc2c1)C(N)=O)N(C)C(=O)[C@H](Cc1c[nH]c2ccccc12)NC(=O)CNC(=O)[C@H](Cc1ccc(O)cc1)NC(=O)[C@H](C)NC(=O)[C@@H](CCC(=O)O)NC(=O)CN1CCN(CC(=O)O)CCN(CC(=O)O)CCN(CC(=O)O)CC1 [^111In-DOTA-MGS5-2, metal not drawn]
fraction unbound at 4 h, 500 pmol/mL [2]: 0.683
fraction unbound at 24 h, 500 pmol/mL [2]: 0.654
Percentage of radioligand bound to serum proteins after 24 h incubation [2]: ~30%
intact radioligand present in the blood at 10 min p.i. [1]: 88.4±0.4%

CCCC[C@@H](C(=O)N[C@@H](CC(=O)O)C(=O)N(C)[C@@H](Cc1cccc2ccccc12)C(N)=O)N(C)C(=O)[C@H](Cc1c[nH]c2ccccc12)NC(=O)CNC(=O)[C@H](Cc1ccc(O)cc1)NC(=O)[C@H](C)NC(=O)[C@@H](CCC(=O)O)NC(=O)CN1CCN(CC(=O)O)CCN(CC(=O)O)CCN(CC(=O)O)CC1 [^111In-DOTA-MGS11, metal not drawn]
fraction unbound at 4 h, 500 pmol/mL [2]: 0.681
fraction unbound at 24 h, 500 pmol/mL [2]: 0.602
Percentage of radioligand bound to serum proteins after 24 h incubation [2]: ~30%
intact radioligand present in the blood at 10 min p.i. [1]: 98.4±0.1%

CCCC[C@H](NC(=O)[C@H](Cc1c[nH]c2ccccc12)NC(=O)CNC(=O)[C@H](Cc1ccc(O)cc1)NC(=O)[C@H](C)NC(=O)[C@@H](CCC(=O)O)NC(=O)[C@@H](CCC(=O)O)NC(=O)[C@@H](CCC(=O)O)NC(=O)[C@@H](CCC(=O)O)NC(=O)[C@@H](CCC(=O)O)NC(=O)[C@@H](CCC(=O)O)NC(=O)CN1CCN(CC(=O)O)CCN(CC(=O)O)CCN(CC(=O)O)CC1)C(=O)N[C@@H](CC(=O)O)C(=O)N[C@@H](Cc1ccccc1)C(N)=O [^177Lu-PP-F11N, metal not drawn, reference compound]
intact radioligand present in the blood at 10 min p.i. [1]: 22.3%
intact radioligand present in the blood at 30 min p.i. [1]: 12.7%

CSCC[C@H](NC(=O)[C@H](Cc1c[nH]c2ccccc12)NC(=O)CNC(=O)[C@H](Cc1ccc(O)cc1)NC(=O)[C@H](C)NC(=O)[C@@H](CCC(=O)O)NC(=O)[C@@H](CCC(=O)O)NC(=O)[C@@H](CCC(=O)O)NC(=O)[C@@H](CCC(=O)O)NC(=O)[C@@H](CCC(=O)O)NC(=O)[C@@H](CCC(=O)O)NC(=O)CN1CCN(CC(=O)O)CCN(CC(=O)O)CCN(CC(=O)O)CC1)C(=O)N[C@@H](CC(=O)O)C(=O)N[C@@H](Cc1ccccc1)C(N)=O [^177Lu-PP-F11, metal not drawn, reference compound]
intact radioligand present in the blood at 30 min p.i. [1]: 5.5%

CCCC[C@@H](C(=O)N[C@@H](CC(=O)O)C(=O)N(C)[C@@H](Cc1ccccc1)C(N)=O)N(C)C(=O)[C@H](Cc1c[nH]c2ccccc12)NC(=O)CNC(=O)[C@H](Cc1ccc(O)cc1)NC(=O)[C@H](C)NC(=O)[C@@H](CCC(=O)O)NC(=O)CN1CCN(CC(=O)O)CCN(CC(=O)O)CCN(CC(=O)O)CC1 [^111In-DOTA-MGS4, ^111In-DOTA-DGlu-Ala-Tyr-Gly-Trp-(N-Me)Nle-Asp-(N-Me)Phe-NH2, metal not drawn, reference compound]
fraction unbound at 4 h, 500 pmol/mL [2]: 0.911
fraction unbound at 24 h, 500 pmol/mL [2]: 0.881
Percentage of radioligand bound to serum proteins after 24 h incubation [2]: ~12%

CCCC[C@@H](C(=O)N[C@@H](CC(=O)O)C(=O)N[C@@H](Cc1cccc2ccccc12)C(N)=O)N(C)C(=O)[C@H](Cc1c[nH]c2ccccc12)NC(=O)CNC(=O)[C@@H]1CCCN1C(=O)[C@H](Cc1ccc(O)cc1)NC(=O)[C@@H](CCC(=O)O)NC(=O)CN1CCN(CC(=O)O)CCN(CC(=O)O)CCN(CC(=O)O)CC1 [^111In-DOTA-MGS10, metal not drawn] ({DOTA}-[dE]YPGW[NMeNle]D[1Nal]-NH2)
fraction unbound at 4 h, 500 pmol/mL [2]: 0.433
intact radioligand present in the blood at 10 min p.i. [1]: 82.3±1.8%
